Measured values taken from patent publication US20240150293A1, “SPIROCYCLOHEXANE DERIVATIVES, PHARMACEUTICAL COMPOSITIONS CONTAINING THEM AND THEIR USES AS ANTI-APOPTOTIC INHIBITORS” (LES LABORATOIRES SERVIER, priority 2021, published 2024).
pKi: −log10 of the molar value.

Each compound was assayed against Mcl-1 protein (UniProtKB Q07820) (Homo sapiens (Human), UniProt Q07820) (assay: Inhibition of Mcl-1 by the fluorescence polarisation assay (Example A, Method A)). Conditions: fluorescence polarization assay.
Sequence of Mcl-1 protein (Q07820 whole entry): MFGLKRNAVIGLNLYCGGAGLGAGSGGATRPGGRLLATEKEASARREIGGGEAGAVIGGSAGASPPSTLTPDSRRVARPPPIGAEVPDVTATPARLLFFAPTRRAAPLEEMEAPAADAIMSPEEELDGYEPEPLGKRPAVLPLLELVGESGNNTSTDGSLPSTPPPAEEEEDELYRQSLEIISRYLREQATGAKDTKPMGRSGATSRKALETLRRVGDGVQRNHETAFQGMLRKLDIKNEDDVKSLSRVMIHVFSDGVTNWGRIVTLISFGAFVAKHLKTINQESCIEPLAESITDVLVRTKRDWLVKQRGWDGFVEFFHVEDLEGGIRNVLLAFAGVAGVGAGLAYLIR
Format: binding
Method: The relative binding potency of each compound was determined via Fluorescence Polarisation (FP). The method utilised a Fluorescein labelled ligand (Fluorescein-βAla-Ahx-A-REIGAQLRRMADDLNAQY-OH; MW 2,765) which binds to the Mcl-1 protein (such that Mcl-1 corresponds to the UniProtKB® primary accession number: Q07820) leading to an increased anisotropy measured in milli-polarisation (mP) units using a reader. The addition of a compound which binds competitively to the same site as the ligand will result in a greater proportion of unbound ligand in the system indicated by a decrease in mP units.
An 11 point serial dilution of each compound was prepared in DMSO and 2 μl transferred into flat bottomed, low binding, 384-well plate (final DMSO concentration 5%). 38 μl of buffer containing the Fluorescein labelled ligand (final concentration 1 nM) and Mcl-1 protein (final concentration 5 nM) was then added. Buffer components were 10 mM 4-(2-hydroxyethyl)-1-piperazineethanesulfonic acid [HEPES], 150 mM NaCl, pH 7.4 with the addition of 0.05% Tween 20.
Assay plates were incubated for 2 hours at room temperature before FP was measured on a […] Synergy Neo reader ([…], Cut off 510 nm) and mP units calculated. The binding of increasing doses of test compound was expressed as a percentage reduction in mP compared to a window established between ‘5% DMSO only’ and ‘100% inhibition’ controls. 11-point dose response curves were plotted with XL-Fit software using a 4-Parameter Logistic Model (Sigmoidal Dose-Response Model) and the inhibitory concentrations that gave a 50% reduction in mP (IC50) were determined. The Ki values were determined from the IC50 values according to Cer et al, Nucleic Acids Res, 2009, 37 (WebServer issue): W441-W445. Inhibition constants (Ki) are determined from complete binding inhibition curves (cKi) or from estimated from incomplete binding inhibition curves (eKi) in most cases due to low activity.

| pKi | SMILES |
| --- | --- |
| 4.65 | COc1ccc(C2=Cc3ccccc3[C@]23CC[C@](Nc2cccc(Cl)c2)(C(=O)O)CC3)cc1C [Example 224, (1r,4r)-4-(3-chloroanilino)-2′-(4-methoxy-3-methylphenyl)spiro[cyclohexane-1,1′-indene]-4-carboxylic acid] |
| 4.62 | CC1=Nc2ccccc2[C@]12CC[C@](Nc1cccc(Br)c1)(C(=O)O)CC2 [Example 22, (1r,4r)-4-(3-bromoanilino)-2′-methylspiro[cyclohexane-1,3′-indole]-4-carboxylic acid] |
| 6.14 | COc1cc(C)cc(C2=Cc3ccccc3[C@]23CC[C@@](Nc2cccc(Cl)c2)(C(=O)O)CC3)c1 [Example 310, (1s,4s)-4-(3-chloroanilino)-2′-(3-methoxy-5-methylphenyl)spiro[cyclohexane-1,1′-indene]-4-carboxylic acid] |
| 5.84 | O=C(O)[C@]1(Nc2cccc(Cl)c2)CC[C@@]2(CC1)c1ccccc1CC2C1CCCC1 (single isomer, unassigned) [Example 91, (1r,4r)-4-(3-chloroanilino)-2′-cyclopentyl-2′,3′-dihydrospiro[cyclohexane-1,1′-indene]-4-carboxylic acid] |
| 5.14 | COc1cccc([C@H]2Cc3ccccc3[C@]23CC[C@@](Nc2cccc(Br)c2)(C(=O)O)CC3)c1 [Example 220, (1r,2′R,4R)-4-(3-bromoanilino)-2′-(3-methoxyphenyl)-2′,3′-dihydrospiro[cyclohexane-1,1′-indene]-4-carboxylic acid] |
| 4.59 | O=C(O)[C@]1(Nc2cccc(Cl)c2)CC[C@@]2(C=Cc3ncccc32)CC1 [Example 70, (1r,4r)-4-(3-chloroanilino)spiro[cyclohexane-1,5′-cyclopenta[b]pyridine]-4-carboxylic acid] |
| 6.11 | O=C(O)[C@]1(Nc2cccc(Cl)c2)CC[C@]2(CC1)C(CCCCOc1ccccc1)=Cc1ccccc12 [Example 160, (1r,4r)-4-(3-chloroanilino)-2′-(4-phenoxybutyl)spiro[cyclohexane-1,1′-indene]-4-carboxylic acid] |
| 4.50 | C[C@H]1c2ccccc2[C@]2(CC[C@@](Nc3cccc(Cl)c3)(C(=O)O)CC2)[C@H]1C (single isomer, unassigned) [Example 208, (1r,2′R*,3'S*,4r)-4-(3-chloroanilino)-2′,3′-dimethyl-2′,3′-dihydrospiro[cyclohexane-1,1′-indene]-4-carboxylic acid] |
| 3.94 | Cc1ccc(C2=Cc3ccccc3C23CCC(Nc2cccc(Br)c2)(C(=O)O)CC3)cc1Cl (single isomer, unassigned) [Example 234, 4-(3-bromoanilino)-2′-(3-chloro-4-methylphenyl)spiro[cyclohexane-1,1′-indene]-4-carboxylic acid] |
| 6.63 | CC1CCc2nccc(OCCCC3Cc4ccccc4[C@]34CC[C@@](Nc3ccccc3)(C(=O)O)CC4)c21 (stereo partly shown) [Example 477, (1r,4r)-4-anilino-2′-{3-[(5-methyl-6,7-dihydro-5H-cyclopenta[b]pyridin-4-yl)oxy]propyl}-2′,3′-dihydrospiro[cyclohexane-1,1′-indene]-4-carboxylic acid] |
| 6.58 | O=C(O)[C@]1(Nc2cccc(Cl)c2)CC[C@]2(CC1)C(C#CCCOc1ccnc3ccsc13)=Cc1ccccc12 [Example 195, (1s,4s)-4-(3-chloroanilino)-2′-{4-[(thieno[3,2-b]pyridin-7-yl)oxy]but-1-yn-1-yl}spiro[cyclohexane-1,1′-indene]-4-carboxylic acid] |
| 3.87 | Cc1cc(C2=Cc3ccccc3C23CCC(Nc2cccc(Br)c2)(C(=O)O)CC3)ccc1Cl (single isomer, unassigned) [Example 235, 4-(3-bromoanilino)-2′-(4-chloro-3-methylphenyl)spiro[cyclohexane-1,1′-indene]-4-carboxylic acid] |
| 6.59 | CCCC1Cc2ccccc2[C@]12CC[C@@](Nc1cccc(Br)c1)(C(=O)O)CC2 (stereo partly shown) [Example 148, (1r,4r)-4-(3-bromoanilino)-2′-propyl-2′,3′-dihydrospiro[cyclohexane-1,1′-indene]-4-carboxylic acid] |
| 5.53 | COc1cccc(C2Cc3ccccc3[C@]23CC[C@@](Nc2cccc(Cl)c2)(C(=O)O)CC3)c1C (single isomer, unassigned) [Example 321, (1r,4r)-4-(3-chloroanilino)-2′-(3-methoxy-2-methylphenyl)-2′,3′-dihydrospiro[cyclohexane-1,1′-indene]-4-carboxylic acid] |
| 5.37 | CN(CCc1ccccc1)C(=O)C1Cc2ccccc2[C@]12CC[C@@](Nc1cccc(Cl)c1)(C(=O)O)CC2 (single isomer, unassigned) [Example 408, (1r,4r)-4-(3-chloroanilino)-2′-[methyl(2-phenylethyl)carbamoyl]-2′,3′-dihydrospiro[cyclohexane-1,1′-indene]-4-carboxylic acid] |
| 4.44 | COc1cccc(N2Cc3ccccc3[C@]23CC[C@](Nc2cccc(Br)c2)(C(=O)O)CC3)c1 [Example 31, (1r,4r)-4-(3-bromoanilino)-2′-(3-methoxyphenyl)-2′,3′-dihydrospiro[cyclohexane-1,1′-isoindole]-4-carboxylic acid] |
| 6.21 | O=C(O)[C@]1(Nc2cccc(Cl)c2)CC[C@@]2(CC1)c1ccccc1CC2CCCOC1CCOc2ccccc21 (stereo partly shown) [Example 471, (1r,4r)-4-(3-chloroanilino)-2′-{3-[(3,4-dihydro-2H-1-benzopyran-4-yl)oxy]propyl}-2′,3′-dihydrospiro[cyclohexane-1,1′-indene]-4-carboxylic acid] |
| 6.08 | O=C(O)[C@]1(Nc2cccc(Cl)c2)CC[C@]2(CC1)C(c1cccc(C(F)(F)F)c1)=Cc1ccccc12 [Example 312, (1s,4s)-4-(3-chloroanilino)-2′-[3-(trifluoromethyl)phenyl]spiro[cyclohexane-1,1′-indene]-4-carboxylic acid] |
| 6.41 | O=C(O)[C@]1(Nc2cccc(Cl)c2)CC[C@@]2(CC1)c1ccccc1CC2CCCOc1ccc2c(c1)OCO2 (stereo partly shown) [Example 428, (1r,4r)-2′-{3-[(2H-1,3-benzodioxol-5-yl)oxy]propyl}-4-(3-chloroanilino)-2′,3′-dihydrospiro[cyclohexane-1,1′-indene]-4-carboxylic acid] |
| 4.87 | COc1ccc([C@H]2Cc3ccccc3[C@]23CC[C@@](Nc2cccc(Br)c2)(C(=O)O)CC3)cc1 [Example 218, (1r,2′R,4R)-4-(3-bromoanilino)-2′-(4-methoxyphenyl)-2′,3′-dihydrospiro[cyclohexane-1,1′-indene]-4-carboxylic acid] |
| 7.16 | Cc1cncnc1OCCCC1Cc2ccccc2[C@]12CC[C@@](Nc1cccc(Cl)c1)(C(=O)O)CC2 (stereo partly shown) [Example 441, (1r,4r)-4-(3-chloroanilino)-2′-{3-[(5-methylpyrimidin-4-yl)oxy]propyl}-2′,3′-dihydrospiro[cyclohexane-1,1′-indene]-4-carboxylic acid] |
| 4.93 | CC1(C)CCC=C1C1=Cc2ccccc2[C@]12CC[C@@](Nc1cccc(Cl)c1)(C(=O)O)CC2 [Example 278, (1s,4s)-4-(3-chloroanilino)-2′-(5,5-dimethylcyclopent-1-en-1-yl)spiro[cyclohexane-1,1′-indene]-4-carboxylic acid] |
